Molecules are shown by their SMILES.

The target of the assay is T1, Serine/threonine-protein kinase Chk1 (Homo sapiens, UniProt O14757).
T1 sequence (O14757 whole entry): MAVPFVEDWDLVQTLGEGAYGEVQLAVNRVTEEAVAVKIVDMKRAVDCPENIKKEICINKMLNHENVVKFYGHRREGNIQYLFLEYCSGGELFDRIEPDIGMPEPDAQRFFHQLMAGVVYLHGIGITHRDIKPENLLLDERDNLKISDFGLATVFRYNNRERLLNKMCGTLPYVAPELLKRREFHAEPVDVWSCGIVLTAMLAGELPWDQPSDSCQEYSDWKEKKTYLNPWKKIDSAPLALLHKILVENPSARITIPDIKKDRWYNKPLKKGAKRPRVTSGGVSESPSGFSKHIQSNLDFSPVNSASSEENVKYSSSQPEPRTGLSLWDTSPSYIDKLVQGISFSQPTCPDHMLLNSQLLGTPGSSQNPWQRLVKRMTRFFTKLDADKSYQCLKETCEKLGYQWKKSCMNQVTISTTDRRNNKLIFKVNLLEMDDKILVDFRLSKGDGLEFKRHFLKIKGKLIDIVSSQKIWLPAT
Kind of assay: Inhibition of His-tagged CHK1 after 2 hrs by liquid scintillation counting.
With `CC(=O)Nc1cccc(-c2cc3c(N[C@H]4CCCNC4)ncc(C(N)=O)c3s2)c1`, the IC50 – broadly, the concentration at which inhibition is half-maximal – is 2 nM. In other words, the single-digit nanomolar range.

`NC(=O)c1cnc(N[C@H]2CCCNC2)c2cc(-c3cccc(N)c3)sc12` returned an IC50 of 2 nM.

Regarding `CN(C)C(=O)c1ccc(-c2cc3c(N[C@H]4CCCNC4)ncc(C(N)=O)c3s2)cc1`, the IC50 worked out at 1 nM.

Turning to `COc1ccc(-c2cc3c(N[C@H]4CCCNC4)ncc(C(N)=O)c3s2)cn1`, it took 3 nM to reach half-maximal inhibition (IC50).

The compound `NC(=O)c1cnc(N[C@H]2CCCNC2)c2cc(-c3ccncc3)sc12` came in with an IC50 of 3 nM.

The compound `NC(=O)c1cnc(N[C@H]2CCCNC2)c2cc(-c3ccc(F)c(F)c3)sc12` showed an IC50 of 2 nM.

As for `CN(C)S(=O)(=O)c1cccc(-c2cc3c(N[C@H]4CCCNC4)ncc(C(N)=O)c3s2)c1`, the IC50 is 20 nM. This IC50 lies about 10-fold higher than the previous one.

In turn, `CN(C)S(=O)(=O)c1ccc(-c2cc3c(N[C@H]4CCCNC4)ncc(C(N)=O)c3s2)cc1` gave an IC50 of 16 nM.

For `NC(=O)c1cnc(N[C@H]2CCCNC2)c2cc(-c3cccnc3)sc12`, the IC50 is 5 nM.

Compound `NC(=O)c1cnc(N[C@H]2CCCNC2)c2cc(-c3ccccc3)sc12` yielded an IC50 of 4 nM. This IC50 and that of the compound before are within 1.5-fold of each other.

Turning to `NC(=O)c1cnc(N[C@H]2CCCNC2)c2sc(-c3ccc(Cl)cc3)cc12`, it took 4580 nM to reach half-maximal inhibition (IC50).

As for `NC(=O)c1cnc(N[C@H]2CCCNC2)c2nc(-c3ccc(Cl)cc3)sc12`, half-maximal inhibition (IC50) was put at 9 nM.

In turn, `NC(=O)c1cnc(N[C@H]2CCCNC2)c2cc(-c3ccccc3Cl)sc12` showed an IC50 of 21 nM.

`NC(=O)c1cnc(N[C@H]2CCCNC2)c2cc(-c3cccc4[nH]ccc34)sc12` registered a half-inhibitory concentration (IC50) of 5 nM.

Turning to `COc1ccccc1-c1cc2c(N[C@H]3CCCNC3)ncc(C(N)=O)c2s1`, the IC50 is 19 nM. This IC50 lies about 3.8-fold higher than the previous one.

As to `COc1ccc(-c2cc3c(N[C@H]4CCCNC4)ncc(C(N)=O)c3s2)cc1`, inhibition was half-maximal at 3 nM (IC50).

With `NC(=O)c1cnc(N[C@H]2CCCNC2)c2cc(-c3cccc(CO)c3)sc12`, the IC50 was determined as 3 nM.

Consider `NC(=O)c1cnc(N[C@H]2CCCNC2)c2cc(-c3ccc4sccc4c3)sc12`, for which the IC50 is 4 nM.

As to `NC(=O)c1cnc(N[C@H]2CCCNC2)c2cc(-c3ccc(Oc4ccccc4)cc3)sc12`, the midpoint of inhibition, the IC50, lay at 4 nM.

Compound `NC(=O)c1cnc(N[C@H]2CCCNC2)c2cc(-c3ccc4[nH]ccc4c3)sc12` yielded an IC50 of 60 nM.

Consider `NC(=O)c1cnc(N[C@H]2CCCNC2)c2cc(-c3ccc4cc[nH]c4c3)sc12`, for which the IC50 was found to be 16 nM.

Consider `NC(=O)Nc1sc(-c2ccc(Cl)cc2)cc1C(=O)NC1CCCCC1`, for which the IC50 was 2 nM.

The compound `NC(=O)c1cnc(N[C@H]2CCCNC2)c2cc(-c3ccc(F)cc3F)sc12` showed an IC50 of 9 nM. Against the preceding compound, the IC50 is about 4.5-fold higher.

For `NC(=O)c1cnc(N[C@H]2CCCNC2)c2cc(-c3ccc(Cl)c(F)c3)sc12`, the IC50 is 9 nM.

The compound `NC(=O)c1cnc(N[C@H]2CCNC2)c2cc(-c3ccc(Cl)cc3)sc12` gave an IC50 of 14 nM.

`NC(=O)c1cnc(NC2CNC2)c2cc(-c3ccc(Cl)cc3)sc12` returned an IC50 of 707 nM.

Compound `NC(=O)c1cnc(N[C@H]2CCCNC2)c2cc(-c3ccc(C(F)(F)F)cc3)sc12` displayed an IC50 of 5 nM.

On to `CS(=O)(=O)c1ccc(-c2cc3c(N[C@H]4CCCNC4)ncc(C(N)=O)c3s2)cc1`, for which the IC50 is 2 nM.

`NC(=O)Nc1sc(-c2ccc(Cl)cc2)cc1C(=O)N1CCCC[C@H](N)C1` gave an IC50 of 746 nM.

On to `NC(=O)c1cnc(N[C@H]2CCCCNC2)c2cc(-c3ccc(Cl)cc3)sc12`, for which it took 3 nM to reach half-maximal inhibition (IC50). Compared with the last compound, the IC50 is about 250-fold lower.

Regarding `N#Cc1cccc(-c2cc3c(N[C@H]4CCCNC4)ncc(C(N)=O)c3s2)c1`, the midpoint of inhibition, the IC50, lay at 7 nM.

Regarding `NC(=O)c1cnc(N[C@H]2CCCNC2)c2cc(-c3ccc(F)cc3)sc12`, the IC50 worked out at 5 nM. The IC50 values of the last two compounds are within 1.5-fold of each other.

The compound `CNCCNc1ncc(C(N)=O)c2sc(-c3ccc(Cl)cc3)cc12` showed an IC50 of 7 nM.

Compound `NC(=O)c1cnc(NCC2CCCCN2)c2cc(-c3ccc(Cl)cc3)sc12` (centres undefined) gave an IC50 of 292 nM.

As for `NC(=O)c1cnc(N[C@H]2CCCNC2)c2cc(-c3ccc(OC(F)(F)F)cc3)sc12`, the IC50 was found to be 9 nM.

`NC(=O)c1cnc(N[C@H]2CCCNC2)c2cc(-c3ncccn3)sc12` came in with a half-inhibitory concentration (IC50) of 60 nM.

With `NC(=O)c1cnc(NC[C@@H]2CCCN2)c2cc(-c3ccc(Cl)cc3)sc12`, inhibition was half-maximal at 197 nM (IC50).

Regarding `NC(=O)c1cnc(NC[C@@H]2CSCN2)c2cc(-c3ccc(Cl)cc3)sc12`, the IC50 stood at 937 nM.

Regarding `NC(=O)c1cnc(N[C@H]2CCCNC2)c2cc(-c3ccc(F)c(Cl)c3)sc12`, half-maximal inhibition (IC50) required 4 nM.

On to `NC(=O)c1cnc(N[C@H]2CCCNC2)c2cc(-c3cc4ccccc4o3)sc12`, for which the IC50 came out at 2 nM.

`NC(=O)c1cnc(N2CCC[C@@H](N)C2)c2cc(-c3ccc(Cl)cc3)sc12` showed an IC50 of 148 nM. This IC50 lies about 74-fold higher than the previous one.

On to `NC(=O)c1cnc(N[C@@H]2CCCNC2)c2cc(-c3ccc(Cl)cc3)sc12`, for which inhibition was half-maximal at 211 nM (IC50).

`NC(=O)c1cnc(N[C@H]2CCCNC2)c2cc(C#Cc3cccnc3)sc12` returned an IC50 of 67 nM.

On to `NC(=O)c1cnc(N[C@H]2CCCNC2)c2cc(-c3cnc4ccccc4c3)sc12`, for which the IC50 is 34 nM.

`NC(=O)c1cnc(N[C@@H]2CCCC[C@H]2N)c2cc(-c3ccc(Cl)cc3)sc12` gave an IC50 of 27100 nM.

In turn, `COc1ccc(F)cc1-c1cc2c(N[C@H]3CCCNC3)ncc(C(N)=O)c2s1` registered an IC50 of 24 nM.

The compound `NC(=O)c1ccc(-c2cc3c(N[C@H]4CCCNC4)ncc(C(N)=O)c3s2)cc1` yielded an IC50 of 1 nM.

`NC(=O)c1cnc(N[C@H]2CCCNC2)c2cc(-c3ccc4ncccc4c3)sc12`: the IC50 worked out at 5 nM.

As for `NC(=O)c1cnc(N[C@H]2CCCNC2)c2cc(-c3cc(F)cc(F)c3)sc12`, the IC50 is 5 nM.

As for `NC(=O)c1cnc(N[C@H]2CCCNC2)c2cc(-c3cccc(Cl)c3)sc12`, the IC50 came to 4 nM.

`Cn1ccc2cc(-c3cc4c(N[C@H]5CCCNC5)ncc(C(N)=O)c4s3)ccc21` registered an IC50 of 8 nM. This IC50 is about 2-fold higher than that of the compound before.

The compound `NC(=O)c1cnc(N[C@H]2CCCNC2)c2cc(-c3cccc(N4CCCC4)c3)sc12` displayed a concentration for half-maximal inhibition (IC50) of 3 nM.

Regarding `NC(=O)c1cnc(N[C@H]2CCCNC2)c2cc(Br)sc12`, 56 nM corresponded to half-maximal inhibition (IC50).

For `NC(=O)c1cnc(N[C@H]2CCCNC2)c2ccsc12`, half-maximal inhibition (IC50) required 717 nM.

The values are drawn from ChEMBL document CHEMBL1287790, “Design, synthesis and SAR of thienopyridines as potent CHK1 inhibitors” (Bioorg Med Chem Lett, 2010).
